The test system of one data set is A 549 cells. The experiment in a line: Fluorescence-based cell viability in conventional 96-well plates with oxygen tension-controlled incubator, compared with the device. On the set-up: species or system human. Conditions: 96-well plate, 48 hours, normoxia and hypoxia.
A further data set can be described thus: in vitro. In kind it is cell-based. The following applies: human. As for the experimental part: To examine the performance of the array on a chip form for cell culture, carcinomic human alveolar basal epithelial cells (A549, ATCC, Manassas, Va., USA) were utilized. A549 cells were cultured in F-12K medium (Gibco 21127, Invitrogen Co., Carlsbad, Calif., USA) with 10% v/v fetal bovine serum (FBS) (Gibco 10082, Invitrogen Carlsbad, Calif., USA) and 1% v/v antibiotic-antimycotic (Gibco 15240, Invitrogen, Carlsbad, Calif., USA). The stocks were maintained under 5% CO2 in T25 cell culture flasks (Nunc 156367, Thermo Scientific Inc., Rochester, N.Y., USA), and passaged by dissociation with 0.25% trypsin-EDTA (Gibco 25200, Invitrogen, Carlsbad, Calif., USA). […]
For oxygen scavenging, pyrogallol (benzene-1,2,3-triol, C6H6O3) (87-66-1, Alfa Aesar, Ward Hill, Mass., USA) and sodium hydroxide (NaOH) (30620, Sigma-Aldrich, St Louis, Mo., USA) were introduced into the microfluidic channels to control oxygen tensions. The oxygen tensions in the cell culture wells were calibrated by measuring the relative fluorescence lifetime of an oxygen sensitive fluorescence dye, tris(2,2′-bypyridyl) ruthenium […] chloride (50525-27-4, Acros Organics, Geel, Belgium), while flowing chemicals in the underneath channels with various concentrations using the experimental setup as shown in FIG. 2(a). […]

In data set [1] the test system is A549 cells. The experiment in a line: PrestoBlue normalized cell viability of A549 cells treated with TPZ under various oxygen tensions on the array platform (48 hours). In kind it is cell-based, human.
Method: In the experiments, 1 M NaOH and pyrogallol solutions with concentrations of 0, 190, and 500 μg ml^−1 at flow rates of 20 μml^−1 were used to set the oxygen tensions inside the cell culture wells as normoxia (˜20%), 7.0%, and 1.4%, respectively, and the drug, TPZ, with concentrations of 0, 10, 25, 50, and 100 mM were applied. The cells were cultured under different conditions, including: 20% oxygen and 0 mM TPZ; 20% oxygen and 50 mM TPZ; and 1.4% oxygen and 50 mM TPZ, for 48 hours. […] Furthermore, the cell viability was checked using a live/dead stain solution containing calcein AM (1 mM) and ethidium homodimer-1 (2 mM) from LIVE/DEAD Viability/Cytotoxicity Kit (L3224, Invitrogen). […] To quantitatively characterize the cell viabilities of A549 cells treated with TPZ under various oxygen tensions, the PrestoBlue cell viability assays were performed in the experiments. […] In order to minimize variations between the experiments, the measured fluorescence intensity from each well was normalized to the average intensity of the cell culture wells, in which the cells were cultured under normoixa without TPZ (i.e. 0 mM TPZ). To compare the differences between the normalized cell viabilities for various oxygen tensions, statistical analysis, unpaired, two-tailed Student's t-tests were performed in this study.
For data set [2], the system named is A549 cells. The experiment in a line: Cell morphology and attachment of A549 cells cultured with TPZ on the array platform. In kind it is cell-based, human. The following applies: 48 hours. As for the experimental part:
In the experiments, 1 M NaOH and pyrogallol solutions with concentrations of 0, 190, and 500 μg ml^−1 at flow rates of […] were used to set the oxygen tensions inside the cell culture wells as normoxia (˜20%), 7.0%, and 1.4%, respectively, and the drug, TPZ, with concentrations of […] were applied. The cells were cultured under different conditions, including: 20% oxygen and 0 mM TPZ; 20% oxygen and 50 mM TPZ; and 1.4% oxygen and 50 mM TPZ, for 48 hours. […] Furthermore, the cell viability was checked using a live/dead stain solution containing calcein AM (1 mM) and ethidium homodimer-1 (2 mM) from LIVE/DEAD Viability/Cytotoxicity Kit (L3224, Invitrogen). The great viability (>95% by analyzing four fluorescence images taken in different cell culture wells using an image analysis software MetaMorph from Molecular Devices, Sunnyvale, Calif.) of the cells cultured under the control conditions for 48 hours confirmed the great cell compatibility of the multi-layer PDMS microfluidic device according to the invention. […] To quantitatively characterize the cell viabilities of A549 cells treated with TPZ under various oxygen tensions, the PrestoBlue cell viability assays were performed in the experiments. The developed microfluidic array platform can be directed placed into a microplate reader commonly used in biological labs for assay readout. […]

Method for A 549 cells: A comparison of cell viabilities under various drug treatments in normoxia and hypoxia conditions using the cell culture array platform according to the invention and conventional 96-well plates (167008, Nunclon DELTA Surface, Nunc) with an oxygen tension-controlled cell incubator (Heracell 240i, Thermo Scientific). In the well plate experiments, approximate 5000 A 549 cells were seeded into each well. The cells with 80 μl medium were incubated overnight in the cell incubator to ensure the cell attachment onto the wells before the drug treatments, and 20 μl drug solutions with various TPZ concentrations were than added into the wells. The cells were incubated with drug-contained medium for 48 hours. After the testing, the cell viabilities were estimated using the fluorescence-based cell viability assay, and read by the plate reader.

`Nc1n[n+]([O-])c2ccccc2[n+]1[O-]` [TPZ, 3-amino-1,2,4-benzotriazine-1,4-dioxide]: the “hypoxia-activated cytotoxicity in well plates compared with the device” value in the data set on A 549 cells is “more hypoxia-activated cytotoxicity”. This compound also gave a cytotoxicity at 12 h in the data set “in vitro” greater than 20%. For the same compound, in the data set with A549 cells [1], the “normalized cell viability at 1.4% oxygen tension versus 7.0% oxygen tension” value is “lower statistically than that for the 7.0% oxygen tension condition”. Further, in the data set on A549 cells [1] (TPZ concentrations higher than 25 mM, normalized to normoxia without TPZ), the “normalized cell viability, normoxia higher than low oxygen tensions (7.0% and 1.4%)” value is on record as “more than 20%”. The “cell morphology / attachment” value was “more cells became rounded and detached from the substrate” with A549 cells [2] (1.4% oxygen and 50 mM TPZ); “the shapes of the cells became rounded and some cells detached from the substrate” in the data set with A549 cells [2] (20% oxygen and 50 mM TPZ).
